EC50 and melting point data for 31 compounds are collected here from patent US11008323B2, “Substituted tricyclic 1,4-benzodiazepinone derivatives as allosteric modulators of group II metabotropic glutamate receptors” (Domain Therapeutics, priority 2015, dated 2021).

The target of one data set is T1, human mGluR3 (hmGluR3) (Homo sapiens, UniProt Q14832).
T1 construct: expressed in transfected cells; host or cells: HEK-293 cells, transient co-transfection by electroporation
The data set is described as follows: Human mGluR3 positive allosteric modulator evaluation using Ca++ functional assay. In kind it is cell-based. To be noted: hmGluR3 transiently over-expressed in HEK-293 cells; stimulated by EC50 glutamate concentration; intracellular Ca2+ (Fluo4AM, FLIPR Tetra). Put shortly:
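HEK-293 cells transiently co-expressing hmGluR3, a chimeric G protein and two glutamate transporters; Fluo4 calcium read on FLIPR. Compound alone for 10 min (agonist), then EC50 glutamate for 3 min (PAM); 20-point curves gave EC50, duplicate, two independent runs.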

By EC50 is commonly meant the midpoint of the concentration-response curve. A higher EC50 goes with lower potency in that assay. A word on the melting point: it is the temperature, or range, at which the solid turns liquid.

Counter-ions that a name gives are not always drawn.

T1 sequence (Q14832 23-879): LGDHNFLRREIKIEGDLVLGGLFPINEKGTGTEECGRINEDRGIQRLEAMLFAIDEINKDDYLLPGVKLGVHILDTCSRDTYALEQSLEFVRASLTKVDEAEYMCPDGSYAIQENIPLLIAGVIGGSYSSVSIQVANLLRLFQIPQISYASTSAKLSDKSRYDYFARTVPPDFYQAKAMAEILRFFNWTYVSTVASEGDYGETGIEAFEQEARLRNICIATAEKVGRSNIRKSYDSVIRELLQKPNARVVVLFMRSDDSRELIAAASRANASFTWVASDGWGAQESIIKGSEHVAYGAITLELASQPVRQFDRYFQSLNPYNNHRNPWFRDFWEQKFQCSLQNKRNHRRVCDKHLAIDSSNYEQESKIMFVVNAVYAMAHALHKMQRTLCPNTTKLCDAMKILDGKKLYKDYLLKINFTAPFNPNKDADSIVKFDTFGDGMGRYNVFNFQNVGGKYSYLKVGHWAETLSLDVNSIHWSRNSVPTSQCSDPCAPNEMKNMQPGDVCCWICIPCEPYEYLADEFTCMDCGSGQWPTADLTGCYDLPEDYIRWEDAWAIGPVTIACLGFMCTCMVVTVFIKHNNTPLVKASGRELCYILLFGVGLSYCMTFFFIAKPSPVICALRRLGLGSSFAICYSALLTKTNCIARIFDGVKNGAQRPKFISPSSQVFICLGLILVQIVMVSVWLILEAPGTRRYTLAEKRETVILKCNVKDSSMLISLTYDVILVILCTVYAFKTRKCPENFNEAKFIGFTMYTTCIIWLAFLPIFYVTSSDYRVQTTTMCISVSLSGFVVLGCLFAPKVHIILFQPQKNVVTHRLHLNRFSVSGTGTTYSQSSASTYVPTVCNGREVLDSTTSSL

The compound `CN1C(=O)c2cccn2-c2cc(CC#N)ccc2C12CC2` [Example 51, 5-Methyl-9-acetonitrile-spiro[benzo[f]pyrrolo[1,2-a][1,4]diazepine-6,1′-cyclopropan]-4(5H)-one] returned a melting point of 60 to 69 °C. Further, the 50% effective concentration (EC50) on human mGluR3 (hmGluR3) was over 1000 nM.

Turning to `CN1C(=O)c2cccn2-c2cc(-c3ccc(C(F)(F)F)nc3)ccc2C12CC2` [Example 60, 5-Methyl-9-(6-trifluoromethylpyridin-3-yl)-spiro[benzo[f]pyrrolo[1,2-a][1,4]diazepine-6,1′-cyclopropan]-4(5H)-one], the melting point was in the range of 88 to 97 °C. Also, the EC50 at human mGluR3 (hmGluR3) lay in the range of 100 to 1000 nM.

For `CN1C(=O)c2cc(-c3ccccc3)nn2-c2cc(-c3cc[nH]n3)ccc2C12CC2` [Example 136, 9-(1H-pyrazol-3-yl)-5-methyl-2-phenyl-spiro[benzo[f]pyrazolo[1,5-a][1,4]diazepine-6,1′-cyclopropan]-4(5H)-one], the melting point lay within 218 to 224 °C. At human mGluR3 (hmGluR3), this compound registered an EC50 of 100 to 1000 nM.

`Cc1cccc2c1C1(CC1)N(C)C(=O)c1cccn1-2` [Example 89, 5,7-Dimethyl-spiro[benzo[f]pyrrolo[1,2-a][1,4]diazepine-6,1′-cyclopropan]-4(5H)-one]: the melting point fell in the range of 126 to 134 °C. The same compound registered an EC50 at human mGluR3 (hmGluR3) of over 1000 nM.

On to `CN1C(=O)c2cc(-c3ccccc3)nn2-c2cc(N3CCCC3)ccc2C12CC2` [Example 139, 5-Methyl-2-phenyl-9-(pyrrolidin-1-yl)-spiro[benzo[f]pyrazolo[1,5-a][1,4]diazepine-6,1′-cyclopropan]-4(5H)-one], for which the melting point is 226 to 230 °C. This compound also displayed an EC50 at human mGluR3 (hmGluR3) of over 1000 nM.

Compound `CN1C(=O)c2cc(-c3ccccc3)cn2-c2cc(-c3cccnc3C(F)(F)F)ccc2C12CC2` [Example 100, 5-Methyl-2-phenyl-9-(2-trifluoromethyl-pyridin-3-yl)-spiro[benzo[f]pyrrolo[1,2-a][1,4]diazepine-6,1′-cyclopropan]-4(5H)-one] had a melting point of 199 to 204 °C. For the same compound, the EC50 on human mGluR3 (hmGluR3) was over 1000 nM.

`CN1C(=O)c2cc(-c3ccccc3)nn2-c2cc(-c3cccc(C#N)c3)ccc2C12CC2` [Example 129, 9-(3-Cyano-phenyl)-5-methyl-2-phenyl-spiro[benzo[f]pyrazolo[1,5-a][1,4]diazepine-6,1′-cyclopropan]-4(5H)-one] displayed a melting point of 185 to 190 °C. In addition, the EC50 at human mGluR3 (hmGluR3) lay in the range of 100 to 1000 nM.

Compound `[2H]C([2H])([2H])N1C(=O)c2cccn2-c2cc(-c3ccc(F)cn3)ccc2C12CC2` [Example 64, 5-(Methyl-d3)-9-(5-fluoropyridin-2-yl)-spiro[benzo[f]pyrrolo[1,2-a][1,4]diazepine-6,1′-cyclopropan]-4(5H)-one] returned a melting point of 138 to 142 °C. This compound also displayed an EC50 on human mGluR3 (hmGluR3) of under 100 nM.

Take `CN1C(=O)c2cccn2-c2c(ccc(-c3ccc(F)nc3)c2F)C12CC2` [Example 76, 10-Fluoro-5-Methyl-9-(6-fluoro-pyridin-3-yl)-spiro[benzo[f]pyrrolo[1,2-a][1,4]diazepine-6,1′-cyclopropan]-4(5H)-one]: the melting point fell in the range of 153 to 157 °C. The compound also displayed a concentration for a half-maximal effect (EC50) at human mGluR3 (hmGluR3) of under 100 nM.

Compound `CN1C(=O)c2cc(-c3ccccc3)nn2-c2cc(C#N)ccc2C12CC2` [Example 137, 9-Cyano-5-methyl-2-phenyl-spiro[benzo[f]pyrazolo[1,5-a][1,4]diazepine-6,1′-cyclopropan]-4(5H)-one] had a melting point of 196 to 200 °C. At human mGluR3 (hmGluR3), this compound had an EC50 of over 1000 nM.

With `CN1C(=O)c2cccn2-c2cc(-c3ccnc(C(F)(F)F)c3)ccc2C12CC2` [Example 35, 5-Methyl-9-(2-trifluoromethylpyridin-4-yl)-spiro[benzo[f]pyrrolo[1,2-a][1,4]diazepine-6,1′-cyclopropan]-4(5H)-one], the melting point is 169 to 174 °C. The compound also registered an EC50 on human mGluR3 (hmGluR3) of 100 to 1000 nM.

With `CCc1ncccc1-c1ccc2c(c1)-n1cc(C)cc1C(=O)N(C)C21CC1` (as salt: hydrochloride) [Example 199], the melting point lay in the range of 179 to 184 °C.

Take `CN1C(=O)c2cc(-c3ccccc3)cn2-c2cc(-c3cncnc3)ccc2C12CC2` (as salt: hydrochloride) [Example 104, 5-Methyl-2-phenyl-9-(pyrimidin-5-yl)-spiro[benzo[f]pyrrolo[1,2-a][1,4]diazepine-6,1′-cyclopropan]-4(5H)-one]: the melting point was in the range of 168 to 173 °C.

Compound `CN1C(=O)c2cc(-c3ccccc3)cn2-c2cc(-c3ccncc3)ccc2C12CC2` (as salt: hydrochloride) [Example 102, 5-Methyl-2-phenyl-9-(pyridin-4-yl)-spiro[benzo[f]pyrrolo[1,2-a][1,4]diazepine-6,1′-cyclopropan]-4(5H)-one] had a melting point of 220 to 230 °C.

`Cc1ncccc1-c1ccc2c(c1)-n1cc(-c3ccccc3F)cc1C(=O)N(C)C21CC1` (as salt: hydrochloride) [Example 151] registered a melting point of 185 to 190 °C.

`Cc1ncccc1-c1ccc2c(c1)-n1cc(-c3ccccc3)cc1C(=O)N(C)C21CC1` (as salt: hydrochloride) [Example 95, 5-Methyl-2-phenyl-9-(2-methyl-pyridin-3-yl)-spiro[benzo[f]pyrrolo[1,2-a][1,4]diazepine-6,1′-cyclopropan]-4(5H)-one] had a melting point of 174 to 180 °C.

With `Cc1ccc(-c2ccc3c(c2)-n2cc(-c4nccs4)cc2C(=O)N(C)C32CC2)cn1` (as salt: hydrochloride) [Example 158], the melting point was 228 to 239 °C.

With `Cc1ncccc1-c1ccc2c(c1)-n1cc(-c3cnco3)cc1C(=O)N(C)C21CC1` (as salt: hydrochloride) [Example 182], the melting point was 158 to 168 °C.

`Cc1ncccc1-c1ccc2c(c1)-n1cc(-c3nccs3)cc1C(=O)N(C)C21CC1` (as salt: hydrochloride) [Example 157] had a melting point of 240 to 245 °C.

Regarding `Cc1ccc(-c2ccc3c(c2)-n2cc(-c4ccccc4)cc2C(=O)N(C)C32CC2)cn1` (as salt: hydrochloride) [Example 103, 5-Methyl-2-phenyl-9-(6-methyl-pyridin-3-yl)-spiro[benzo[f]pyrrolo[1,2-a][1,4]diazepine-6,1′-cyclopropan]-4(5H)-one], the melting point lay in the range of 200 to 215 °C.

For `CN1C(=O)c2cccn2-c2cc(-c3ccc(N4CCOCC4)nc3)ccc2C12CC2` (as salt: hydrochloride) [Example 42, 5-Methyl-9-(6-morpholin-4-yl-pyridin-3-yl)-spiro[benzo[f]pyrrolo[1,2-a][1,4]diazepine-6,1′-cyclopropan]-4(5H)-one], the melting point fell in the range of 191 to 199 °C.

Consider `Cc1ncccc1-c1ccc2c(c1)-n1cc(-c3cccc(F)c3)cc1C(=O)N(C)C21CC1` (as salt: hydrochloride) [Example 152], for which the melting point lay in the range of 183 to 190 °C.

Regarding `Cc1nccnc1-c1ccc2c(c1)-n1cccc1C(=O)N(C)C21CC1` (as salt: hydrochloride) [Example 58, 5-Methyl-9-(3-methyl-pyrazin-2-yl)-5,6-spiro[benzo[f]pyrrolo[1,2-a][1,4]diazepine-6,1′-cyclopropan]-4(5H)-one], the melting point lay in the range of 123 to 129 °C.

`CN1C(=O)c2cc(-c3ccccc3)cn2-c2cc(-c3ccccn3)ccc2C12CC2` (as salt: hydrochloride) [Example 111, 5-Methyl-2-phenyl-9-(pyridin-2-yl)-spiro[benzo[f]pyrrolo[1,2-a][1,4]diazepine-6,1′-cyclopropan]-4(5H)-one] displayed a melting point of 185 to 198 °C.

The compound `Cc1ncccc1-c1ccc2c(c1)-n1cc(-c3cc[nH]n3)cc1C(=O)N(C)C21CC1` (as salt: hydrochloride) [Example 146] yielded a melting point of 240 to 250 °C.

`Cc1ccc(-c2ccc3c(c2)-n2cc(-c4ccccc4)cc2C(=O)N(C)C32CC2)c(C)n1` (as salt: hydrochloride) [Example 107, 5-Methyl-2-phenyl-9-(2,6-dimethyl-pyridin-3-yl)-spiro[benzo[f]pyrrolo[1,2-a][1,4]diazepine-6,1′-cyclopropan]-4(5H)-one] showed a melting point of 206 to 214 °C.

`CN1C(=O)c2cccn2-c2cc(-c3ccncc3)ccc2C12CC2` (as salt: hydrochloride) [Example 22, 5-Methyl-9-(pyridin-4-yl)-spiro[benzo[f]pyrrolo[1,2-a][1,4]diazepine-6,1′-cyclopropan]-4(5H)-one] returned a melting point of over 250 °C.

As for `CN1C(=O)c2cccn2-c2cc(-c3cccnc3)ccc2C12CC2` (as salt: hydrochloride) [Example 23, 5-Methyl-9-(pyridin-3-yl)-spiro[benzo[f]pyrrolo[1,2-a][1,4]diazepine-6,1′-cyclopropan]-4(5H)-one], the melting point is over 250 °C.

With `Cc1ccc(-c2ccc3c(c2)-n2cccc2C(=O)N(C)C32CC2)cn1` (as salt: hydrochloride) [Example 25, 5-Methyl-9-(6-methylpyridin-3-yl)-spiro[benzo[f]pyrrolo[1,2-a][1,4]diazepine-6,1′-cyclopropan]-4(5H)-one], the melting point fell in the range of 205 to 215 °C.

Regarding `Cc1ccc(-c2ccc3c(c2)-n2cccc2C(=O)N(C)C32CC2)c(C)n1` (as salt: hydrochloride) [Example 56, 5-Methyl-9-(2,6-dimethylpyridin-3-yl)-spiro[benzo[f]pyrrolo[1,2-a][1,4]diazepine-6,1′-cyclopropan]-4(5H)-one], the melting point was over 250 °C.

Regarding `Cc1ncccc1-c1cc(F)c2c(c1)-n1cccc1C(=O)N(C)C21CC1` (as salt: hydrochloride) [Example 73, 7-Fluoro-5-methyl-9-(2-methyl-pyridin-3-yl)-spiro[benzo[f]pyrrolo[1,2-a][1,4]diazepine-6,1′-cyclopropan]-4(5H)-one], the melting point lay within 174 to 188 °C.
